Laboratory results from patent US12421220B2, “Bicyclic-substituted glutarimide cereblon binders” (C4 THERAPEUTICS, INC., priority 2022, dated 2025).
Read-outs that look alike come from different tables or passages of the source.

What was measured:
[1] = target: CRBN-DDB1 (CRBN_DDB1.7) (Homo sapiens, UniProt Q96SW2); test: Fluorescence polarization (FP) binding assay, CRBN_DDB1.7 construct; details: 0.05% PA, 0.1% BSA
Protocol: (§1) Example 2: Fluorescence Polarization (FP) Assay for Screening Compound Ligand Binders of CRBN-DDB1
(§2) Measuring compound ligand binding to CRBN-DDB 1 was carried out using an established sensitive and quantitative in vitro fluorescence polarization (FP) based binding assay. (See, I. J. Enyedy et al, J. Med. Chem., 44: […] [2001]). Compounds were dispensed from serially diluted DMSO stock into black 384-well compatible fluorescence polarization plates using an Echo acoustic dispenser. Compound binding to CRBN-DDB 1 was measured by displacement of an established CRBN binding ligand conjugated to an Alexa Fluor® dye (probe). A […] mixture containing 10nM CRBN-DDB1 and 5 nM probe in 50 mM Hepes, pH 7.4, 200 mM NaCl, 1% DMSO, 0.1% BSA and 0.05% o pluronic acid-127 acid was added to wells containing compound and incubated at room temperature for 60 min. Matching control wells excluding CRBN-DDB 1 were used to correct for background fluorescence. Plates were read on an Envision plate reader with appropriate FP filter sets. The corrected S (perpendicular) and P (parallel) values were used to calculate fluorescence polarization (FP) with the following equation: FP=1000*(S−G*P)/(S+G*P).
(§3) The fractional amount of bound probe (FB) to CRBN-DDB 1 as a function of compound concentration was fitted according to Wang; FEBS Letters 360, (1995), 111-114 to obtain fits for parameter offsets and binding constant (KA) of competitor compound.

[2] = target: T1, CRBN-DDB1 (CRBN_DDB1.3) (Homo sapiens, UniProt Q96SW2); test: Fluorescence polarization (FP) binding assay, CRBN_DDB1.3 construct; details: 0.05% PA (no BSA); benzomorpholine binders; read-out: FP CRBN_DDB1.3 0.05% PA Ka
[3] = target: T1, CRBN-DDB1 (CRBN_DDB1.3); test: as above; details: for Kd: 0.05% PA, 0.1% BSA
Protocol: as §1, §2, §3

[4] = indoline binders, read-out: FP CRBN_DDB1.7 0.05% PA, 0.1% BSA ka nM
[5] = tetrahydroquinoline binders, read-out: FP CRBN_DDB1.7 0.05% PA, 0.1% BSA ka nM
[6] = tetrahydroquinoline binders, read-out: FP CRBN_DDB1.3 0.05% PA, 0.1% BSA ka nM
[7] = indoline binders, read-out: FP CRBN_DDB1.3 0.05% PA, 0.1% BSA ka nM

T1 sequence (Q96SW2 318-426 limits assumed): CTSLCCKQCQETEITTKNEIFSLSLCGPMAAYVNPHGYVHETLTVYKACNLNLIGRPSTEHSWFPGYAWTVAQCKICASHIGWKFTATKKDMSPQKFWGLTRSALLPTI
Chain of CRBN-DDB1 (CRBN_DDB1.7) (Q96SW2 81-442 limits assumed): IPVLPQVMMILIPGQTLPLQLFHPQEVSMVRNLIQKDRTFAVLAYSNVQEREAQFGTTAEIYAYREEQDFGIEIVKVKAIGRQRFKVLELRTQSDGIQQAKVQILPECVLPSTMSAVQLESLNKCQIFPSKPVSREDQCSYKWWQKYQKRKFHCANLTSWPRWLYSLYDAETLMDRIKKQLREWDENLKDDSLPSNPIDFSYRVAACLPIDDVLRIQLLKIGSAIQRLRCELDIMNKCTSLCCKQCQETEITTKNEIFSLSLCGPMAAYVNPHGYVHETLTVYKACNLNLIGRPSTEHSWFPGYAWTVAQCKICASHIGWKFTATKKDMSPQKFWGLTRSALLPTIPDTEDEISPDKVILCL

Row | SMILES | Kd [1, 4] | Kd [3, 7] | other results
1 | CC(C)(C)OC(=O)N1CCC(c2cccc3c2CCN3[C@H]2CCC(=O)NC2=O)CC1 (single isomer, unassigned) [Compound 41-5] | < 1000 nM |  | 
2 | CN(C(=O)OC(C)(C)C)C1CCN(c2c(F)ccc3c2CCN3[C@@H]2CCC(=O)NC2=O)CC1 (single isomer, unassigned) [Compound 44-9] | < 100000 nM |  | 
3 | O=C1CCC(N2CCOc3c(C4CCNCC4)cccc32)C(=O)N1 (centres unmarked) [Compound 9-11, 3-[8-(4-piperidyl)-2,3-dihydro-1,4-benzoxazin-4-yl]piperidine-2,6-dione] |  |  | Kd [2]: ≤ 100 µM
4 | CC(C)(C)OC(=O)N1CCC(c2cccc3c2CCCN3[C@H]2CCC(=O)NC2=O)CC1 (single isomer, unassigned) [Compound 59-6] |  |  | Kd [1, 5]: < 100000 nM; Kd [3, 6]: < 100000 nM
5 | CN(C(=O)OC(C)(C)C)C1CCN(c2c(F)ccc3c2CCN3[C@H]2CCC(=O)NC2=O)CC1 (single isomer, unassigned) [Compound 44-8] | < 100000 nM |  | 
6 | O=C1CCC(N2C(=O)COc3c(Br)cccc32)C(=O)N1 (centres unmarked) [Compound 33-5, 3-(8-bromo-3-oxo-1,4-benzoxazin-4-yl)piperidine-2,6-dione] |  |  | Kd ([1]; benzomorpholine binders, read-out: FP CRBN_DDB1.7 0.05% PA, 0.1% BSA Ka nM): ≤ 100000 nM
7 | CC(C)(C)OC(=O)N1CCC(c2cccc3c2OCCN3C2CCC(=O)NC2=O)CC1 (centres unmarked) [Compound 9-6, tert-butyl 4-[4-(2,6-dioxo-3-piperidyl)-2,3-dihydro-1,4-benzoxazin-8-yl]piperidine-1-carboxylate] |  |  | FP CRBN_DDB1.3 0.05% PA, 0.1% BSA Ka nM ([3]; benzomorpholine binders): ** (≤100 μM is **); Kd [2]: ≤ 100 µM
8 | O=C1CC[C@@H](N2CCc3c(N4CCC(CCO)CC4)cccc32)C(=O)N1 (single isomer, unassigned) [Compound 42-6] | < 1000 nM | < 1000 nM | 
9 | O=C1CC[C@@H](N2CCc3c(N4CCC5(CC4)OCCO5)cccc32)C(=O)N1 (single isomer, unassigned) [Compound 45-4] | < 1000 nM | < 100000 nM | 
10 | CN(C(=O)OC(C)(C)C)C1CCN(c2cccc3c2CCN3C2CCC(=O)NC2=O)CC1 (racemic) [Compound 34-5, tert-butyl (1-(1-(2,6-dioxopiperidin-3-yl)indolin-4-yl)piperidin-4-yl)(methyl)carbamate] | < 100000 nM | < 100000 nM | 
11 | O=C1CCC(N2CCc3c(N4CCNCC4)cccc32)C(=O)N1 (centres unmarked) [Compound 37-4, 3-(4-piperazin-1-ylindolin-1-yl)piperidine-2,6-dione] | < 100000 nM |  | 
12 | CC(C)(C)OC(=O)N1CCC2(CC1)Cc1ccccc1N(C1CCC(=O)NC1=O)C2 (centres unmarked) [Compound 64-7, tert-butyl 1-(2,6-dioxo-3-piperidyl)spiro[2,4-dihydroquinoline-3,4′-piperidine]-1′-carboxylate] |  |  | Kd [1, 5]: < 100000 nM
13 | CC(C)(C)OC(=O)N1CCC(c2cccc3c2CCCN3[C@@H]2CCC(=O)NC2=O)CC1 (single isomer, unassigned) [Compound 59-5] |  |  | Kd [1, 5]: < 100000 nM; Kd [3, 6]: < 100000 nM
14 | O=C1CC[C@@H](N2CCCc3c(N4CCC(CCO)CC4)cccc32)C(=O)N1 (single isomer, unassigned) [Compound 66-5] |  |  | Kd [3, 6]: < 100000 nM
15 | CN(C(=O)OC(C)(C)C)C1CCN(c2cccc3c2OCCN3[C@@H]2CCC(=O)NC2=O)CC1 (single isomer, unassigned) [Compound 16-7] |  |  | Kd ([3]; benzomorpholine binders, read-out: FP CRBN_DDB1.3 0.05% PA, 0.1% BSA Ka nM): ≤ 1000 nM
16 | CC(C)(C)OC(=O)N1CCC(c2cccc3c2CCN3[C@@H]2CCC(=O)NC2=O)CC1 (single isomer, unassigned) [Compound 41-4] | < 100000 nM |  | 
17 | CC(C)(C)OC(=O)N1CCC(OC2CCN(c3cccc4c3CCCN4[C@H]3CCC(=O)NC3=O)CC2)CC1 (single isomer, unassigned) [Compound 67-6] |  |  | Kd [3, 6]: < 100000 nM
18 | O=C1CC[C@@H](N2CCc3c(N4CCC(O)CC4)cccc32)C(=O)N1 (single isomer, unassigned) [Compound 43-4] | < 1000 nM |  | 
19 | O=C1CC[C@H](N2CCc3c(N4CCC(O)CC4)cccc32)C(=O)N1 (single isomer, unassigned) [Compound 43-5] | < 100000 nM |  | 
20 | O=C1CC[C@H](N2CCc3c(N4CCC5(CC4)OCCO5)cccc32)C(=O)N1 (single isomer, unassigned) [Compound 45-3] | < 100000 nM | < 1000 nM | 
21 | O=C1CCC(N2CCCc3c(N4CCC(O)CC4)cccc32)C(=O)N1 (centres unmarked) [Compound 65-7, 3-[5-(4-hydroxy-1-piperidyl)-3,4-dihydro-2H-quinolin-1-yl]piperidine-2,6-dione] |  |  | Kd [1, 5]: < 100000 nM
22 | O=C1CC[C@H](N2CCc3c(N4CCC(CCO)CC4)cccc32)C(=O)N1 (single isomer, unassigned) [Compound 42-5] | < 100000 nM | < 100000 nM | 

The next lines start with results.

Row | Kd [1, 4] | Kd [3, 7] | SMILES | other results
23 | < 100000 nM | < 100000 nM | CN(C(=O)OC(C)(C)C)[C@H]1CC[C@@H](c2c(F)ccc3c2CCN3C2CCC(=O)NC2=O)CC1 (single isomer, unassigned) [Compound 46-9b, tert-butyl ((1s,4s)-4-(1-(2,6-dioxopiperidin-3-yl)-5-fluoroindolin-4-yl)cyclohexyl)(methyl)carbamate] | 
24 | < 100000 nM | < 100000 nM | CC(C)(C)OC(=O)N1CCC(c2ccc3c(c2F)CCN3[C@H]2CCC(=O)NC2=O)CC1 (single isomer, unassigned) [Compound 47-6] | 
25 | < 100000 nM | < 100000 nM | CN(C(=O)OC(C)(C)C)[C@H]1CC[C@H](c2c(F)ccc3c2CCN3C2CCC(=O)NC2=O)CC1 (single isomer, unassigned) [Compound 46-9a, tert-butyl ((1r,4r)-4-(1-(2,6-dioxopiperidin-3-yl)-5-fluoroindolin-4-yl)cyclohexyl)(methyl)carbamate] | 
26 | < 100000 nM | < 100000 nM | CC(C)(C)OC(=O)N1CCC(c2c(F)ccc3c2CCN3[C@H]2CCC(=O)NC2=O)CC1 (single isomer, unassigned) [Compound 49-6] | 
27 | < 100000 nM | < 100000 nM | CC(C)(C)OC(=O)N1CCC(c2ccc3c(c2F)CCN3[C@@H]2CCC(=O)NC2=O)CC1 (single isomer, unassigned) [Compound 47-7] | 
28 | < 100000 nM | < 100000 nM | CC(C)(C)OC(=O)N1CCC(c2c(F)cc3c(c2F)CCN3[C@@H]2CCC(=O)NC2=O)CC1 (single isomer, unassigned) [Compound 50-9] | 
29 |  | < 100000 nM | CC(C)(C)OC(=O)C1CCN(Cc2cccc3c2CCN3C2CCC(=O)NC2=O)CC1 (racemic) [Compound 54-5, tert-butyl 1-[[1-(2,6-dioxo-3-piperidyl)indolin-4-yl]methyl]piperidine-4-carboxylate] | 
30 |  | < 100000 nM | CC(C)(C)OC(=O)C1CCN(Cc2cccc3c2CCN3[C@H]2CCC(=O)NC2=O)CC1 (single isomer, unassigned) [Compound 54-6] | 
31 | < 100000 nM | < 100000 nM | CC(C)(C)OC(=O)N1CCC(c2c(F)cc3c(c2F)CCN3[C@H]2CCC(=O)NC2=O)CC1 (single isomer, unassigned) [Compound 50-8] | 
32 |  | < 100000 nM | O=C1CCC(N2CCc3c(N4CCC(C(F)(F)CO)CC4)cccc32)C(=O)N1 (centres unmarked) [Compound 51-12, 3-[4-[4-(1,1-difluoro-2-hydroxy-ethyl)-1-piperidyl]indolin-1-yl]piperidine-2,6-dione] | 
33 |  | < 100000 nM | CN(C(=O)OC(C)(C)C)[C@H]1CC[C@H](c2c(F)cc3c(c2F)CCN3[C@H]2CCC(=O)NC2=O)CC1 (single isomer, unassigned) [Compound 55-4] | 
34 | < 100000 nM | < 100000 nM | CC(C)(C)OC(=O)N1CCC(c2c(F)ccc3c2CCN3[C@@H]2CCC(=O)NC2=O)CC1 (single isomer, unassigned) [Compound 49-7] | 
